Literature values, collected in US5639739A, “Imidazole containing aminoboronic acids” (The DuPont Merck Pharmaceutical Company, priority 1995, dated 1997).

Tests used:
thrombin = settings: literature values
chymotrypsin = chymotrypsin (Bos taurus, UniProt P00766); settings: Matteson et al. 1981
human thrombin = human thrombin (Homo sapiens, UniProt P00734)

For N#CC(CCCNC(=N)N)NC(=O)[C@@H]1CCCN1C(=O)[C@H](N)Cc1ccccc1 (stereo partly drawn) [D-phenylalanyl-prolyl-NHCH((CH2)3 NHC(=NH)NH2)--CN], the Ki (thrombin) is given as 700 nM.

In the case of CC(=O)N[C@@H](Cc1ccccc1)B(O)O [Acborophe-OH, R-1-acetamido-2-phenylethane boronic acid], the Ki (chymotrypsin) is listed as 4000 nM.

For N=C(N)NCCC[C@H](NC(=O)[C@@H]1CCCN1C(=O)[C@H](N)Cc1ccccc1)C(=O)CCl [H-(D) Phe-Pro-ArgCH2 Cl], the “kind of inhibition of human thrombin” value (human thrombin; Kettner and Shaw 1979) is given as “selective but irreversible inhibitor”.

In the case of N=C(N)NCCC[C@@H](C=O)NC(=O)[C@@H]1CCCN1C(=O)[C@H](N)Cc1ccccc1 [D-phenylalanyl-prolyl-arginal], the Ki (human thrombin; human thrombin, literature values) is given as 75 nM.
